Data from PMC4646407, “Tripartite ATP-independent Periplasmic (TRAP) Transporters Use an Arginine-mediated Selectivity Filter for High Affinity Substrate Binding” (The Journal of Biological Chemistry, 2015).

Columns and labels:
SiaP (SiaP-His6) [1] = target: SiaP (SiaP-His6) (Haemophilus influenzae, UniProt P44542, R170K/F193W); conditions: 50 mM Tris/HCl, pH 8.0; 0.5 μM protein
SiaP (SiaP-His6) [2] = target: SiaP (SiaP-His6) (Haemophilus influenzae, UniProt P44542, F193W); conditions: 50 mM Tris/HCl, pH 8.0
Sequence of SiaP (SiaP-His6) (Haemophilus influenzae, UniProt P44542, F193W) (P44542 24-329 F193W): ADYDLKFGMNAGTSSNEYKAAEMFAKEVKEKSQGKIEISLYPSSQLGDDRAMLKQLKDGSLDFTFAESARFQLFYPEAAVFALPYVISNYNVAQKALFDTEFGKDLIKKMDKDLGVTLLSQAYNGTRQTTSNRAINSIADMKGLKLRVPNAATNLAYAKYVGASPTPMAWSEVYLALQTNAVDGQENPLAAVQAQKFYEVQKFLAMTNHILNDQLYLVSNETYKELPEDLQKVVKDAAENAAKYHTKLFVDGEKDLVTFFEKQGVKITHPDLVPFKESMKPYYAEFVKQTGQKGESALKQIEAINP

SiaP (SiaP-His6) [3] = target: T1, SiaP (SiaP-His6) (Haemophilus influenzae, UniProt P44542); experiment: intrinsic tyrosine fluorescence titration; format: binding; conditions: 50 mM Tris/HCl, pH 8.0; 0.05 μM protein
T1 construct: C-terminal His6 tag; expressed in E. coli BL21(DE3) pLysS (pET21b, pAH16) with native signal peptide, purified from periplasm
T1 sequence (P44542 24-329): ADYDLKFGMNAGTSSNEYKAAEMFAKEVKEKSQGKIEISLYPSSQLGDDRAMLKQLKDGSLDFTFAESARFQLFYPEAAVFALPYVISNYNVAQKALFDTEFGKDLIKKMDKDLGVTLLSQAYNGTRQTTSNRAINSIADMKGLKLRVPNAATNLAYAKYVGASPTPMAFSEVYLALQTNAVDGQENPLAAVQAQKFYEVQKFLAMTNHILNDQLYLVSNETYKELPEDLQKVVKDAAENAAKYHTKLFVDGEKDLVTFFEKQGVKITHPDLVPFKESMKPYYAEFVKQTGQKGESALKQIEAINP

Sequence of SiaP (SiaP-His6) (Haemophilus influenzae, UniProt P44542, R170K/F193W) (P44542 24-329 R170K/F193W): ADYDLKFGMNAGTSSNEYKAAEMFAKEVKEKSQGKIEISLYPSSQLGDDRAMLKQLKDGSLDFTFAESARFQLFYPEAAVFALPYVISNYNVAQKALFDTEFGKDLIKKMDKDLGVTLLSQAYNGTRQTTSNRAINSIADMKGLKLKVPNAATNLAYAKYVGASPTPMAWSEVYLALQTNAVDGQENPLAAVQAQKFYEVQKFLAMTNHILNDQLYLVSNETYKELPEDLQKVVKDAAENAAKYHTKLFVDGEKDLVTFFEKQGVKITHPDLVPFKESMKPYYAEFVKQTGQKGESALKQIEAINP

For CC(=O)N[C@H]1[C@H]([C@H](O)[C@H](O)CO)OC(O)(C(=O)O)C[C@@H]1O (stereo partly drawn) [Neu5Ac], the Kd (SiaP (SiaP-His6) [1]) was 38700 ± 8300 µM, the Kd (SiaP (SiaP-His6) [2]) was 1.21 ± 0.03 µM and the Kd (SiaP (SiaP-His6) [3]) was 0.14 ± 0.04 µM.
